According to US8426202B2, “Cell culture medium” (Cellca GmbH, priority 2005, dated 2013):
Values joined by “and” are separate entries in the source; they are usually repeats but may differ in a detail not shown here. Equal values may be shown once.

Experiments:
[1] = system: CHO cell line that expresses an antibody; assay: Batch experiment with the substances according to the invention (Example 1); format: cell-based, Chinese hamster; details: batch mode, substance 0.5-1 g/l, basal medium glucose 4.7 g/l, glutamine […]
Experimental: Cells were stored in the gas phase of liquid nitrogen. One to two ampoules were thawed in nutrient medium preheated to 37° C. and transferred to spinner bottles, shaking flasks or T-bottles. In the first few days of cultivation the medium was changed, depending on the clone.
Depending on the clone, cells were split either every second day or every third day or after two and three days alternately into new medium, i.e. a portion of the cell suspension was removed from culture and a smaller portion of the cell suspension was reused as inoculum for the next culture. This inoculum was made up with fresh prewarmed nutrient medium. Cells were incubated at 37° C. in an incubator with a CO2 atmosphere. An alternative for incubating cells was cultivation in an incubation chamber at 37° C., in this way cells were held in culture for several passages. A passage means a cultivation time of two to three days. At various points of time, cell suspension was taken from strain maintenance and used as inoculum for experiments. The experiments were carried out in various cultivation systems, for example in spinner bottles, T-bottles, shaking flasks, culture tubes or in controlled bioreactors.
(§1) Feed took place at regular intervals.

[2] = system: CHO cell line that expresses an antibody; assay: Fed-batch experiment with the substances according to the invention (Example 2, Table 2); format: cell-based, Chinese hamster; design: Viabil.: concentration or dose not given beside the values
Description: as §1

Compound `O=C(O)CC(O)C(=O)O` (centres unmarked) [Malic acid] has a Gln ([1]; day 0) of 1.53 mM, a Glucose ([1]; day 0) of 4.69 g/L and a Lactate ([1]; day 0) of 0 g/L. The NH4 ([1]; day 0) was 1.22 mM, the “Specific Glutamin consumption (Gln/VCD)” value ([1]; day 0) was 1.49 and the “Specific ammonia production (NH4/VCD)” value ([1]; day 0) was 1.18. For the same compound, the “Specific glucose consumption (Gluc/VCD)” value ([1]; day 0) was 4.55, the “Specific lactate production (Lac/VCD)” value ([1]; day 0) was 0.00 and the “Total Cell Density TCD” value ([1]; day 0) was 1.07 E5/ml. For the same compound, the Viabil. ([1]; day 0) was 96%, the “Viable Cell Density (VCD)” value ([1]; day 0) was 1.03 E5/ml and the Gln ([1]; day 3) was 0.67 mM. The Glucose ([1]; day 3) was 3.9 g/L, the Lactate ([1]; day 3) was 0.85 g/L and the NH4 ([1]; day 3) was 1.9 mM. For the same compound, the “Specific Glutamin consumption (Gln/VCD)” value ([1]; day 3) was 0.09, the “Specific ammonia production (NH4/VCD)” value ([1]; day 3) was 0.25 and the “Specific glucose consumption (Gluc/VCD)” value ([1]; day 3) was 0.51. The “Specific lactate production (Lac/VCD)” value ([1]; day 3) was 0.11, the “Total Cell Density TCD” value ([1]; day 3) was 7.8 E5/ml and the Viabil. ([1]; day 3) was 97%. The “Viable Cell Density (VCD)” value ([1]; day 3) was 7.6 E5/ml, the Gln ([1]; day 6) was 0.28 mM and the Glucose ([1]; day 6) was 2.65 g/L. The Lactate ([1]; day 6) was 1.14 g/L, the NH4 ([1]; day 6) was 2.42 mM and the “Specific Glutamin consumption (Gln/VCD)” value ([1]; day 6) was 0.01. The “Specific ammonia production (NH4/VCD)” value ([1]; day 6) was 0.06, the “Specific glucose consumption (Gluc/VCD)” value ([1]; day 6) was 0.06 and the “Specific lactate production (Lac/VCD)” value ([1]; day 6) was 0.03. The “Total Cell Density TCD” value ([1]; day 6) was 43.4 E5/ml, the Viabil. ([1]; day 6) was 97% and the “Viable Cell Density (VCD)” value ([1]; day 6) was 42.2 E5/ml. The Gln ([1]; day 8) was 0.37 mM, the Glucose ([1]; day 8) was 1.76 g/L and the Lactate ([1]; day 8) was 0.94 g/L. For the same compound, the NH4 ([1]; day 8) was 2.4 mM, the “Specific Glutamin consumption (Gln/VCD)” value ([1]; day 8) was 0.02 and the “Specific ammonia production (NH4/VCD)” value ([1]; day 8) was 0.10. The “Specific glucose consumption (Gluc/VCD)” value ([1]; day 8) was 0.08, the “Specific lactate production (Lac/VCD)” value ([1]; day 8) was 0.04 and the “Total Cell Density TCD” value ([1]; day 8) was 26.1 E5/ml. The Viabil. ([1]; day 8) was 89%, the “Viable Cell Density (VCD)” value ([1]; day 8) was 23.2 E5/ml and the Gln ([1]; day 11) was 0.44 mM. The Glucose ([1]; day 11) was 0.47 g/L, the Lactate ([1]; day 11) was 1.2 g/L and the NH4 ([1]; day 11) was 2.75 mM. The “Specific Glutamin consumption (Gln/VCD)” value ([1]; day 11) was 0.03, the “Specific ammonia production (NH4/VCD)” value ([1]; day 11) was 0.16 and the “Specific glucose consumption (Gluc/VCD)” value ([1]; day 11) was 0.03. The “Specific lactate production (Lac/VCD)” value ([1]; day 11) was 0.07, the “Total Cell Density TCD” value ([1]; day 11) was 28.5 E5/ml and the Viabil. ([1]; day 11) was 61%. For the same compound, the “Viable Cell Density (VCD)” value ([1]; day 11) was 17.5 E5/ml, the “Total Cell Density TCD” value ([2]; day 0, fed-batch) was 1.5 E5/ml and the Viabil. ([2]; day 0, fed-batch) was 91%. For the same compound, the “Viable Cell Density (VCD)” value ([2]; day 0, fed-batch) was 1.37 E5/ml, the “Total Cell Density TCD” value ([2]; day 2, fed-batch) was 3.9 E5/ml and 4.2 E5/ml and the Viabil. ([2]; day 2, fed-batch) was 97% and 98%. For the same compound, the “Viable Cell Density (VCD)” value ([2]; day 2, fed-batch) was 3.8 E5/ml and 4.1 E5/ml, the “Total Cell Density TCD” value ([2]; day 5, fed-batch) was 14.1 E5/ml and 12.8 E5/ml and the Viabil. ([2]; day 5, fed-batch) was 97% and 98%. The “Viable Cell Density (VCD)” value ([2]; day 5, fed-batch) was 13.7 E5/ml and 12.5 E5/ml, the “Total Cell Density TCD” value ([2]; day 8, fed-batch) was 49.1 E5/ml and 45.3 E5/ml and the Viabil. ([2]; day 8, fed-batch) was 91% and 92%. For the same compound, the “Viable Cell Density (VCD)” value ([2]; day 8, fed-batch) was 44.9 E5/ml and 41.6 E5/ml.
With `O=C(O)C(O)C(O)C(=O)O` (centres unmarked) [Tartaric acid] the Gln ([1]; day 0) was 1.53 mM, the Glucose ([1]; day 0) was 4.69 g/L and the Lactate ([1]; day 0) was 0 g/L. The NH4 ([1]; day 0) was 1.22 mM, the “Specific Glutamin consumption (Gln/VCD)” value ([1]; day 0) was 1.49 and the “Specific ammonia production (NH4/VCD)” value ([1]; day 0) was 1.18. The “Specific glucose consumption (Gluc/VCD)” value ([1]; day 0) was 4.55, the “Specific lactate production (Lac/VCD)” value ([1]; day 0) was 0.00 and the “Total Cell Density TCD” value ([1]; day 0) was 1.07 E5/ml. The Viabil. ([1]; day 0) was 96%, the “Viable Cell Density (VCD)” value ([1]; day 0) was 1.03 E5/ml and the Gln ([1]; day 3) was 0.9 mM. The Glucose ([1]; day 3) was 4.53 g/L, the Lactate ([1]; day 3) was 0.41 g/L and the NH4 ([1]; day 3) was 1.84 mM. For the same compound, the “Specific Glutamin consumption (Gln/VCD)” value ([1]; day 3) was 0.17, the “Specific ammonia production (NH4/VCD)” value ([1]; day 3) was 0.34 and the “Specific glucose consumption (Gluc/VCD)” value ([1]; day 3) was 0.84. For the same compound, the “Specific lactate production (Lac/VCD)” value ([1]; day 3) was 0.08, the “Total Cell Density TCD” value ([1]; day 3) was 5.5 E5/ml and the Viabil. ([1]; day 3) was 98%. For the same compound, the “Viable Cell Density (VCD)” value ([1]; day 3) was 5.4 E5/ml, the Gln ([1]; day 6) was 0.19 mM and the Glucose ([1]; day 6) was 3.56 g/L. For the same compound, the Lactate ([1]; day 6) was 0.6 g/L, the NH4 ([1]; day 6) was 2.89 mM and the “Specific Glutamin consumption (Gln/VCD)” value ([1]; day 6) was 0.00. For the same compound, the “Specific ammonia production (NH4/VCD)” value ([1]; day 6) was 0.07, the “Specific glucose consumption (Gluc/VCD)” value ([1]; day 6) was 0.09 and the “Specific lactate production (Lac/VCD)” value ([1]; day 6) was 0.02. The “Total Cell Density TCD” value ([1]; day 6) was 41.3 E5/ml, the Viabil. ([1]; day 6) was 97% and the “Viable Cell Density (VCD)” value ([1]; day 6) was 40 E5/ml. The Gln ([1]; day 8) was 0.27 mM, the Glucose ([1]; day 8) was 2.65 g/L and the Lactate ([1]; day 8) was 0.64 g/L. For the same compound, the NH4 ([1]; day 8) was 3.42 mM, the “Specific Glutamin consumption (Gln/VCD)” value ([1]; day 8) was 0.03 and the “Specific ammonia production (NH4/VCD)” value ([1]; day 8) was 0.33. For the same compound, the “Specific glucose consumption (Gluc/VCD)” value ([1]; day 8) was 0.25, the “Specific lactate production (Lac/VCD)” value ([1]; day 8) was 0.06 and the “Total Cell Density TCD” value ([1]; day 8) was 12.1 E5/ml. The Viabil. ([1]; day 8) was 87%, the “Viable Cell Density (VCD)” value ([1]; day 8) was 10.5 E5/ml and the Gln ([1]; day 11) was 0.42 mM. It also gave a Glucose ([1]; day 11) of 1.71 g/L, a Lactate ([1]; day 11) of 0.79 g/L and an NH4 ([1]; day 11) of 3.87 mM. The “Specific Glutamin consumption (Gln/VCD)” value ([1]; day 11) was 0.05, the “Specific ammonia production (NH4/VCD)” value ([1]; day 11) was 0.44 and the “Specific glucose consumption (Gluc/VCD)” value ([1]; day 11) was 0.20. The “Specific lactate production (Lac/VCD)” value ([1]; day 11) was 0.09, the “Total Cell Density TCD” value ([1]; day 11) was 18 E5/ml and the Viabil. ([1]; day 11) was 48%. The “Viable Cell Density (VCD)” value ([1]; day 11) was 8.7 E5/ml, the “Total Cell Density TCD” value ([2]; day 0, fed-batch) was 1.5 E5/ml and the Viabil. ([2]; day 0, fed-batch) was 91%. The “Viable Cell Density (VCD)” value ([2]; day 0, fed-batch) was 1.37 E5/ml, the “Total Cell Density TCD” value ([2]; day 2, fed-batch) was 4 E5/ml and 3.9 E5/ml and the Viabil. ([2]; day 2, fed-batch) was 98% and 97%. For the same compound, the “Viable Cell Density (VCD)” value ([2]; day 2, fed-batch) was 3.9 E5/ml and 3.8 E5/ml, the “Total Cell Density TCD” value ([2]; day 5, fed-batch) was 10.4 E5/ml and 9.6 E5/ml and the Viabil. ([2]; day 5, fed-batch) was 93% and 95%. For the same compound, the “Viable Cell Density (VCD)” value ([2]; day 5, fed-batch) was 9.7 E5/ml and 9.1 E5/ml, the “Total Cell Density TCD” value ([2]; day 8, fed-batch) was 26.6 E5/ml and 27.7 E5/ml and the Viabil. ([2]; day 8, fed-batch) was 89% and 90%. The “Viable Cell Density (VCD)” value ([2]; day 8, fed-batch) was 23.7 E5/ml and 25 E5/ml.
